8 molecules from publication PMC8179002, “Inhibitors of thiol-mediated uptake” (Chemical Science, 2020) can be followed below.

Series [1] can be described thus: Relative cell viability in HCHT screening (propidium iodide negative nuclei count). Format: cell-based. The note with it: human; for GI50: HeLa, removal, tinc 0.5 h with 1 (10 µM), read-out: GI50, concentration causing 50% cell growth inhibition. The method, then: (§1) With COCs 1 and 2 as cell-penetrating reporters, a fully automated, fluorescent microscopy image-based high-content high-throughput (HCHT)[19] inhibitor screening assay was developed. HeLa cells in multiwell plates are incubated with a reporter at constant and inhibitors at varying concentrations and incubation times. Hindered reporter uptake then causes decrease of fluorescence inside of cells (Fig. 3a). Automated data analysis[19] was established to extract average fluorescence intensity per cell and, at the same time, cell viability from propidium iodide negative nuclei count (Fig. 3 and S3–S6 ^†). Standard assay conditions consisted of pre-incubation of HeLa cells with inhibitors for different periods of time, followed by the removal of inhibitors and the addition of reporters, thus excluding possible interactions between the two in the extracellular environment. In alternative co-incubation conditions, inhibitors were not removed before the addition of reporters to allow for eventual interactions between the two.
To be able to extract the fluorescent integrated intensity information (sum of the intensities of all the pixels included in the mask) from the green channel for live cell only, the image analysis pipeline contains several steps of cell filtering and selection:
1) Firstly, PI is used to stain any remaining nuclei of dead cell. In the analysis pipeline, all the “dead” nuclei are detected based on their fluorescent intensity in the PI channel (Figure […]
Fig. S4 (A) PI positive nuclei mask (fluorescent intensity threshold of 1000). (B) Overlap image of dead nuclei mask and original all cell body mask. (C) Resulting cell mask after removing any cell marked by a dead nucleus, new mask is called “Live Cell”. Scale bar: 50 μm.
2) Elimination of non-full cells from the border of the image is performed, to avoid inaccurate fluorescent integrated intensity quantification (fluorescent integrated intensity = sum of intensity of all the pixel of the object) (Figure S5).
(1 picture or pasted object on this page, not shown here)
4.3. HCHT Inhibitor Screening with ETP as Reporter […]
Relative cell viability (RV) for each condition in the presence of inhibitors were calculated using the count value of living cells by dividing the count value of living cells with addition of reporter 1, Hoechst 33342 and PI, for each set of experiments. Duplicates were performed for each condition. The resulting dependence of the relative cell viability (RVrel) to the concentration of inhibitors (cinhibitor) was plotted and fitted with Equation (S2) to retrieve the concentration causing 50% cell growth inhibition (GI50) value and the Hill coefficient (n).
RVrel = 1 / (1 + (GI50 / cinhibitor)n) (S2)
Note: Reporter 1 were not toxic for 1 h at 10 μM.S2 Also in this study, the count value of living cells with addition of reporter 1, Hoechst 33342 and PI is always similar to that of living cells with only addition of Hoechst 33342 and PI.
Relative cell viability (RV) for each condition with inhibitors were calculated using the count value of living cells by dividing the count value of living cells with addition of reporter 2, Hoechst 33342 and PI, for each set of experiments. Duplicates were performed for each condition. The resulting dependence of the relative cell viability (RVrel) to the concentration of inhibitors (cinhibitor) was plotted and fitted with Equation (S2) to retrieve the concentration causing 50% cell growth inhibition (GI50) value and the Hill coefficient (n).
Note: Reporter 2 were not toxic for 24 h at 10 μM.S3 Also in this study, the count value of living cells with addition of reporter 2, Hoechst 33342 and PI is always similar to that of living cells with only addition of Hoechst 33342 and PI.
4.4.1. Screening with Disulfides as Inhibitors
4.4.1.1. Screening with ETP as Inhibitors
Fig. S35 Automatically analyzed HCHT data showing fluorescence intensity (filled symbols) and relative viability (empty symbols) of HeLa cells after pre-incubation with 3 for 1 h (blue […]

The subject of series [2] is cellular uptake of 1 in HeLa Kyoto cells. Kind of series: cells. Format: cell-based. The note with it: HeLa; for IC50 / minimal effective concentration: HeLa Kyoto, removal, tinc 0.5 h with 1 (10 µM); for IC50: read-out: IC50, inhibition of cellular uptake of 1; for minimal effective concentration: read-out: MIC, inhibition of cellular uptake of 1; for MIC (concentration that causes ∼15% reduction of reporter uptake), against reporter 1: pre-incubation time not given (Fig. 2: 1 h pre-incubation, 30 min with reporter; some 15 min). The method, then:
as §1
4. High-Content High-Throughput (HCHT) Inhibitor Screening
4.1. General Procedure for HCHT Inhibitor Screening
4.1.1. Pre-Incubation of Inhibitors
HeLa Kyoto cells were seeded at 1.2 ×10^4 cells/well in FluoroBrite DMEM + 10% FBS on μ-Plate 96-well Black ibiTreat sterile and kept at 37 °C with 5% CO2 overnight. Next day, serial dilutions of the inhibitors in PBS (10x final concentration), reporter 1 or 2 (100 μM in PBS) and a solution of Hoechst 33342 (100 μg/mL) and PI (10 μg/mL) in PBS were prepared freshly in a 96-well V-bottom plate. Then, cells were washed with PBS ([…]) and the media was exchanged to FluoroBrite DMEM (4 x 150 μL/well) using a plate washer (Biotek EL406®), keeping always a final volume of 135 μL/well. The inhibitor solutions from the V-bottom plate were added to the cells (15 μL/well, 10x final concentration in PBS) using an electronic multichannel pipettes to reach a final volume of 150 μL/well. Cells were incubated for the time of interest (for details of each inhibitors, see Section 4.3 and 4.4) at 37 °C with 5%
CO2. After this, cells were washed again using the plate washer and reporter solution 1 or 2 from the V-bottom plate was added (15 μL/well) using an electronic multichannel pipettes to reach a final volume of 150 μL/well and a final concentration of 10 μM, except for the control wells, where only PBS was added (15 μL/well). After 30 min of incubation at 37 °C with 5% CO2, the plate was washed again using the plate washer. Then, the solution of Hoechst 33342 and PI from V-bottom plate was added (15 μL/well) using an electronic multichannel pipettes to reach a final volume of 150 μL/well. After 15 min of incubation at 37 °C with 5% CO2, the plate was washed one last time and the cells were kept in clean FluoroBrite DMEM. During imaging, samples were kept at 37 °C with 5% CO2 in the microscope.
4.1.2. Co-Incubation of Inhibitors and Reporters […]
serial dilutions of the inhibitors in PBS (10x final concentration), reporter 1 or 2 (110 μM in […]
freshly in a 96-well V-bottom plate. Then, cells were washed with the plate washer. The inhibitor solutions from the V-bottom plate were added to the cells (15 μL/well, 10x final concentration in PBS) using an electronic multichannel pipettes to reach a final volume of 150 μL/well. Cells were incubated for the time of interest (for details of each inhibitors, see Section 4.3 and 4.4) at 37 °C with 5% CO2. Reporter solution 1 or 2 from V-bottom plate was then added (15 μL/well) using an electronic multichannel pipettes to reach a final volume of 165 μL/well and a final concentration of 10 μM 30 min before the next washing process, except for the control wells, where only PBS was added (15 μL/well). The plate was washed again using the plate washer. The solution of Hoechst 33342 and PI from V-bottom plate was added (15 μL/well) using an electronic multichannel pipettes to reach a final volume of 150 μL/well. After […]

Setting [3] is: 0.5 h, tpre 0.5 h with inhibitor.
Setting [4] is: 0.25 h, tpre 0.25 h with inhibitor.
Where [5] appears, read: GI50, concentration causing 50% cell growth inhibition.

Where two headings read alike, the source gives them in different places.

By IC50 is commonly meant the concentration at which inhibition is half-maximal. Take `O=C(O)CN1C(=O)C2SSC1C(=O)N2CCOc1ccccc1` (centres unmarked) [compound 5]: the GI50 is 10.3 ± 0.4 µM in series [1] (tpre 0.5 h with inhibitor), 7 ± 0.6 µM in series [1] (tpre 1 h with inhibitor), about 4.7 µM in series [1] (tpre 2 h with inhibitor) and about 4.1 µM in series [1] (tpre 4 h with inhibitor). Moreover, the IC50 is 1.1 ± 0.05 µM in series [2] (setting [3]), 0.86 ± 0.06 µM in series [2] (tpre 1 h with inhibitor), 0.98 ± 0.07 µM in series [2] (tpre 2 h with inhibitor) and 1.42 ± 0.26 µM in series [2] (tpre 4 h with inhibitor). Moreover, the minimal effective concentration was determined as 0.1 µM in series [2] (setting [3]); 0.1 µM in series [2] (1 h, tpre 1 h with inhibitor); 0.1 µM in series [2] (2 h, tpre 2 h with inhibitor); 0.1 µM in series [2] (4 h, tpre 4 h with inhibitor).
Take `O=C(CN1C(=O)C2SSC1C(=O)N2CCOc1ccccc1)NCCS(=O)(=O)O` (centres unmarked) [compound 8]: the GI50 in series [1] (tpre 0.5 h with inhibitor), in series [1] (tpre 1 h with inhibitor) and in series [1] (tpre 2 h with inhibitor) was over 100 µM each time. Further, the half-inhibitory concentration (IC50) in series [2] (setting [3]), in series [2] (tpre 1 h with inhibitor) and in series [2] (tpre 2 h with inhibitor) was over 100 µM throughout. Moreover, the minimal effective concentration was 10 µM in series [2] (setting [3]); 2 µM in series [2] (1 h, tpre 1 h with inhibitor); 6 µM in series [2] (2 h, tpre 2 h with inhibitor).
Turning to `COCCOCCOCCNC(=O)c1ccc2c(c1)SSSSS2` [compound 10], the GI50 in series [1] (tpre 0.5 h with inhibitor) was about 18 µM; in series [1] (tpre 1 h with inhibitor), about 10 µM; in series [1] (tpre 2 h with inhibitor) it was about 7 µM. Further, the IC50 in series [2] (setting [3]) is 10.4 ± 0.3 µM; in series [2] (tpre 1 h with inhibitor), 10.1 ± 0.1 µM; in series [2] (tpre 2 h with inhibitor), over 5 µM. The minimal effective concentration in series [2] (setting [3]) came to 6.5 µM; in series [2] (1 h, tpre 1 h with inhibitor), 7 µM; in series [2] (2 h, tpre 2 h with inhibitor) it was 3.5 µM.
For `CS(=O)(=O)c1nc2ccccc2o1` [compound 11], the GI50 in series [1] (tpre 0.25 h with inhibitor) is over 200 µM; in series [1] (tpre 0.5 h with inhibitor), 138 ± 42 µM; in series [1] (tpre 1 h with inhibitor), 97 ± 8 µM. The minimal effective concentration in series [2] (setting [4]) was found to be 18 µM; in series [2] (setting [3]), 15 µM; in series [2] (1 h, tpre 1 h with inhibitor), 8 µM. The results for the IC50 in series [2] (setting [3]), in series [2] (tpre 0.25 h with inhibitor) and in series [2] (tpre 1 h with inhibitor) were 43.3 ± 3.9 µM, 84 ± 8.2 µM and 38.9 ± 4.2 µM, respectively. The “MIC (concentration that causes ∼15% reduction of reporter uptake), against reporter 1” value in series [2] is “≈ 15 μM”.
On to `CCN1C(=O)C2SSC1C(=O)N2CC(=O)NCC[N+](C)(C)C` (centres unmarked) [compound 12], for which the GI50 in series [1] (tpre 0.5 h with inhibitor), in series [1] (tpre 1 h with inhibitor) and in series [1] (tpre 2 h with inhibitor) was over 100 µM throughout. For the same molecule, the IC50 in series [2] (setting [3]), in series [2] (tpre 1 h with inhibitor) and in series [2] (tpre 2 h with inhibitor) was over 100 µM each time. Moreover, the minimal effective concentration worked out at 30 µM in series [2] (setting [3]); 30 µM in series [2] (1 h, tpre 1 h with inhibitor); 30 µM in series [2] (2 h, tpre 2 h with inhibitor). Also, the “MIC (concentration that causes ∼15% reduction of reporter uptake), against reporter 1” value in series [2] is given as “≈ 30 μM”.
`CS(=O)(=O)c1nnc(-c2ccccc2)o1` [compound 14]: the results for the GI50 in series [1] (tpre 0.25 h with inhibitor) and in series [1] (tpre 0.5 h with inhibitor) were over 500 µM and 410 ± 99 µM, respectively. For the same molecule, the minimal effective concentration worked out at 40 µM in series [2] (setting [4]) and 20 µM in series [2] (setting [3]). The results for the IC50 in series [2] (setting [3]) and in series [2] (tpre 0.25 h with inhibitor) were 204 ± 63 µM and 137 ± 28 µM, respectively.
Take `O=C(O)c1cc(SSc2ccc([N+](=O)[O-])c(C(=O)O)c2)ccc1[N+](=O)[O-]` [compound 20, 5,5’-Dithiobis(2-nitrobenzoic acid), reference compound]: in series [1] (setting [5]), the GI50 at 0.5 h is over 10000 µM and the GI50 at 1 h was over 10000 µM. The “Inhibition of uptake of reporter 1, in words” value in series [2] was “minor inhibition up to around 2 mM, which disappeared again at higher concentrations”. Further, the minimal effective concentration in series [2] (setting [3]) was determined as 200 µM. For the same molecule, the minimal effective concentration in series [2] (1 h, tpre 1 h with inhibitor) was 500 µM.
With `CS(=O)(=O)c1nc2ccccc2s1` [compound 21], the GI50 in series [1] (tpre 0.25 h with inhibitor), in series [1] (tpre 0.5 h with inhibitor) and in series [1] (tpre 1 h with inhibitor) was over 500 µM in each case. Also, the minimal effective concentration in series [2] (setting [4]) is 300 µM; in series [2] (setting [3]) it was 100 µM; in series [2] (1 h, tpre 1 h with inhibitor), 300 µM. Further, the IC50 in series [2] (setting [3]), in series [2] (tpre 0.25 h with inhibitor) and in series [2] (tpre 1 h with inhibitor) was over 500 µM each time. Also, in series [2], the “MIC (concentration that causes ∼15% reduction of reporter uptake), against reporter 1” value is listed as “≈ 300 μM”.
